Results from patent US11066412B2, “Substituted pyrrolo[2,1-a]phthalazines and benzo[g]pyrrolo[2,1-a]phthalazines for the treatment of cancer” (Academia Sinica, priority 2017, dated 2021).
Read-outs that look alike come from different tables or passages of the source.

Legend:
[1] = tested on: pancreatic cancer PacaS1; assay: in vitro cytotoxicity, PrestoBlue assay; type: cell-based, human; settings: Table 2
Method in brief: (§1)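 Cells exposed to compounds for 72 hr, then viability read by PrestoBlue after 1-2 hr at 37° C, absorbance 570 and 600 nm.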

[2] = tested on: colon cancer HCT-116; assay: in vitro cytotoxicity, PrestoBlue assay; type: cell-based, human; settings: Table 2
Method in brief: as §1

[3] = tested on: vinblastine-resistant sub-cell line (CCRF-CEM/VBL); assay: in vitro cytotoxicity, PrestoBlue assay; type: cell-based, human; settings: for IC50: 72-hr incubation, mean ± STDEV of three to six experiments, read-out: IC50 CEM/VBL; for resistance factor (IC50 CEM/VBL vs IC50 of the parent cell line): number in brackets
Method in brief: as §1

[4] = tested on: non-small cell lung cancer H460; assay: in vitro cytotoxicity, PrestoBlue assay; type: cell-based, human; settings: Table 2
Method in brief: as §1

[5] = body weight changes of xenograft-bearing nude mice; type: in vivo; settings: for deleterious effects on the bodyweight of the test animals: micelle formulation, FIG. 12, panel B
Description: (§2) Athymic nude mice bearing the nu/nu gene were obtained from the National Laboratory Animal Center (Taipei, Taiwan). Male nude mice (6 weeks or older weighing 20-24 g or more) were used for all human tumor xenografts. The tested compounds were intravenously administered through tail vein. Tumor volume was determined by measuring the length x width x height (or width) with calipers. The vehicle used for the tested compounds was normal saline (0.9% NaCl isotonic solution). For tumor-bearing nude mice during the course of the experiment, the % body weight changes refer to: (the total weight on reading day/the total weight on day treatment started)×100.

[6] = tested on: EA.hy926 cells; assay: Tube-Formation Assay; type: cell-based; settings: 24 hr pre-treatment, 48-hr incubation on matrigel; FIG. 4
Description: Angiogenesis is the process of generating new blood vessels derived as extensions from the existing vasculature. Performance of vascular behavior or monitoring tube formation can determine whether the compound is capable of interrupting angiogenesis. In this example, whether the compound of formula (I) interrupted angiogenesis was investigated using Tube-Formation Assay.
Briefly, EA.hy926 cells were treated with various concentrations of BO-2590 for 24 hr. After that, cells (5×10^5 cells/well) were suspended in 100 μl medium containing 1% FCS and subsequently seeded onto 96-well plate pre-coated with matrigel 1 h at 37° C. After a 48-hr incubation, tube-formation ability was examined under a phase microscope.

[7] = tested on: small cell lung cancer H526; assay: in vitro cytotoxicity, PrestoBlue assay; type: cell-based, human; settings: read-out: IC50 H526
[8] = tested on: human lymphoblastic leukemia cell line (CCRF-CEM); assay: in vitro cytotoxicity, PrestoBlue assay; type: cell-based; settings: 72-hr incubation; mean ± STDEV of three to six experiments; read-out: IC50 CCRF-CEM
Method in brief: as §1

[9] = tested on: pEGFP-N1 plasmid DNA; assay: DNA cross-linking, alkaline agarose gel electrophoresis; type: biochemical; settings: FIG. 1; for formation of DNA interstrand crosslinks: 1-20 μM, 37° C., 2 hrs
Description: In the present example, BO-2590, BO-2577 (Formula I-A) and BO-2698, BO-2755, BO-2762 and BO-2768 (Formula I-B) were tested for their DNA crosslinking activity, in which the cross-linking was analyzed by alkaline agarose gel electrophoresis. In brief, purified pEGFP-N1 plasmid DNA (1,500 ng) was mixed with various concentrations (1-20 μM) of the tested compounds in 40 μL binding buffer (3 mM sodium chloride/1 mM sodium phosphate, pH 7.4, and 1 mM EDTA). The reaction mixture was incubated at 37° C. for 2 hrs. At the end of reaction, the plasmid DNA was linearized by digestion with BamHI and followed by precipitation with ethanol. The DNA pellets were dissolved and denatured in alkaline buffer (0.5 N NaOH-10mM EDTA). An aliquot of 20 μL of DNA solution (1,000 ng) was mixed with 4 μL of 6× alkaline loading dye and then electrophoretically resolved on a 0.8% alkaline agarose gel with NaOH-EDTA buffer at 4° C. The electrophoresis was carried out at 18V for 22 h. After staining the gels with an ethidium bromide solution, the DNA was visualized under UV light. Results are illustrated in FIG. 1.

[10] = tested on: human SCLC H526 xenografts; assay: tumor growth in xenograft-bearing nude mice; type: in vivo; settings: for tumor size: micelle formulation (Kolliphor/TWEEN 80/PEG400/ethanol/D5W), BO-2768 at 20 mg/kg twice daily, FIG. 12, panel A
Description: as §2, with “The vehicle used for the tested compounds was normal saline (0.9% NaCl isotonic solution).” left out
In all experiments, the tumor cells were subcutaneously implanted in nude mice, and the BO-2590L was administered via tail vein when the tumor size reaching approximate 100 mm^3. […]
To confirm the therapeutic activity of BO-2590L, comparative experiments carried out by known chemotherapeutic agents, such as vatanalib and cisplatin, were also performed. Briefly, the H526 xenograft-bearing mice were divided into 4 groups which were treated with vehicle, BO-2590L (10 mg/kg, QD×9), vatalanib (100 mg/kg, QD×9), and cisplatin (4 mg/kg, Q2D×3), respectively. Results are illustrated in FIG. 11.
Results are illustrated in FIGS. 12 and 13.

[11] = tested on: H526 cell lines; assay: Annexin V staining assay; type: cell-based; settings: 0.01-0.08 μM, 72-h treatment; FIG. 8
Description: In this example, the effect of BO-2768 was assessed in accordance with procedures of Example 4.7 except apoptotic cell death was determined in H526 cell lines. Briefly, H526 cells were treated with BO-2768 at the concentrations of 0.01, 0.02, 0.04 and 0.08 μM or with cisplatin at the concentrations of 2, 4, 8 and 16 μM for 24, 48 or 72 hrs and then stained with Annexin V-FITC and propidium iodide. The stained cells were analyzed by flow cytometry.

Row | SMILES | IC50 Paca SI [1] [µM] | IC50 [2] [µM] | IC50 [3] [µM] | resistance factor (IC50 CEM/VBL vs IC50 of the parent cell line) [3] [×] | IC50 [4] [µM] | deleterious effects on the bodyweight of the test animals ([5]; H526 xenograft mice) | tube formation [6] | IC50 ([7]; Table 2) [µM] | IC50 [8] [µM] | formation of DNA interstrand crosslinks [9] | cross-linker strength compared with melphalan [9] | tumor size [10] | body weight of the test animals ([5]; H211 xenograft mice, co-administration of BO-2768 and cisplatin, FIG. 14, panel B) | effects on the bodyweight of the test animals ([5]; H526 xenograft mice, 20 mg/kg twice per day, FIG. 13, panel B) | IC50 ([7]; Table 3) [µM] | proportion of Annexin V+ cells [11] | tumor growth ([10]; 20 mg/kg twice per day, entire time of the study, FIG. 13, panel A) | tumor growth, dose dependence ([10]; FIG. 13, panel A)
1 | Cc1c(CO)c(CO)c2c3ccccc3c(N3CCC(N4CCCCC4)CC3)nn12 [BO-2590, (6-([1,4′-Bipiperidin]-1′-yl)-3-methylpyrrolo[2,1-α]phthalazine-1,2-diyl)dimethanol] | 0.30 ± 0.08 | 0.4 ± 0.09 | 0.25 ± 0.04 | 1.09 | 0.6 ± 0.11 | none | markedly and dose-dependently abolished tube formation | 0.014 ± 0.004 | 0.23 ± 0.03 | induced DNA interstrand crosslinks | relatively stronger cross-linker than that of melphalan | as effective as irinotecan and cisplatin in reducing the tumor size |  |  |  |  |  | 
2 | Cc1c(CO)c(CO)c2c3cc4ccccc4cc3c(N(C)C)nn12 [BO-2768, (6-(Dimethylamino)-3-methylbenzo[g]pyrrolo[2,1-α]phthalazine-1,2-diyl)dimethanol] | 3.98 ± 1.04 | 0.65 ± 0.02 | 0.1 ± 0.01 | 0.53 | 1.02 ± 0.16 | none |  | 0.05 ± 0.001 | 0.19 ± 0.01 | induced DNA interstrand crosslinks |  | growth of tumor was completely suppressed | without adversely affecting the body weight | without any deleterious effects on the bodyweight | 0.04 ± 0.005 | significantly increased the proportion of Annexin V^+ cells in a dose-dependent manner | completely suppress the growth of tumor | suppressed tumor growth in a dose-dependent manner
